From US7585859B2, “PDE4B inhibitors and uses therefor” (Plexxikon, Inc., priority 2004, dated 2009) come the findings set out here.

Read-outs that look alike come from different tables or passages of the source.

The target in assay [1] is T1, PDE4B: The catalytic domain of human PDE4B from S152-S528 (Homo sapiens, UniProt Q07343).
T1 construct: His6 (N); thrombin cleavage site (N); made in house; host or cells: E. coli
The assay is described as follows: PDE4 IC50 determination by Scintillation Proximity Assay, PDE4B. Format: biochemical. The method, boiled down: (§1)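 Radiometric SPA: PDE4B (80 ng/ml) or PDE4D (4 ng/ml) hydrolysed [^3H]cAMP over 30 min at 30°, and the bead-bound [^3H]AMP was scintillation-counted.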

The target in another assay is T2, PDE4D (Homo sapiens, UniProt Q08499).
T2 construct: PDE4D: The catalytic domain of human PDE4B from S3 16-V692; His6 (N); thrombin cleavage site (N); made in house; host or cells: E. coli
T2 sequence (Q08499 380-756): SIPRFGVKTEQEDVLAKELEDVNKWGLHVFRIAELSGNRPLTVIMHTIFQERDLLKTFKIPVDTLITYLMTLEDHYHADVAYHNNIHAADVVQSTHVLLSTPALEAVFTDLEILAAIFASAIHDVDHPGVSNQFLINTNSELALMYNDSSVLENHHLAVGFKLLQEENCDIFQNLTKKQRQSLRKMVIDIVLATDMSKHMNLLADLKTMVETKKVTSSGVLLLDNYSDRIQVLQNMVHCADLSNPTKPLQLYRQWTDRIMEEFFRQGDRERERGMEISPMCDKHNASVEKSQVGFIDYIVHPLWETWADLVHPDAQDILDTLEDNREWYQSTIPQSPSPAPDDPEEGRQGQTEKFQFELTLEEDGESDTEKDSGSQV
Kind of assay: PDE4 IC50 determination by Scintillation Proximity Assay, PDE4D. The assay is classed as biochemical. The procedure, abridged:
as §1

Setting [2] is: Table 3A, Formula III compounds, read-out: IC50 PDE4B.
Setting [3] is: Table 3A, Formula III compounds, read-out: IC50 PDE4D.
Where [4] appears, read: Table 1B, Formula I compounds, read-out: IC50 PDE4B.
Where [5] appears, read: Table 1B, Formula I compounds, read-out: IC50 PDE4D.
The mark [6] stands for this setting: second part of Table 2B (2-23 to 2-103), column 3, column is PDE4B in first part, read-out: IC 50 vs. indicated assay h TNFα.
Setting [7] is: second part of Table 2B (2-23 to 2-103), column 5, column is PDE4D in first part, read-out: IC 50 vs. indicated assay h TNFα.

T1 sequence (Q07343 with tags, fused parts or gaps): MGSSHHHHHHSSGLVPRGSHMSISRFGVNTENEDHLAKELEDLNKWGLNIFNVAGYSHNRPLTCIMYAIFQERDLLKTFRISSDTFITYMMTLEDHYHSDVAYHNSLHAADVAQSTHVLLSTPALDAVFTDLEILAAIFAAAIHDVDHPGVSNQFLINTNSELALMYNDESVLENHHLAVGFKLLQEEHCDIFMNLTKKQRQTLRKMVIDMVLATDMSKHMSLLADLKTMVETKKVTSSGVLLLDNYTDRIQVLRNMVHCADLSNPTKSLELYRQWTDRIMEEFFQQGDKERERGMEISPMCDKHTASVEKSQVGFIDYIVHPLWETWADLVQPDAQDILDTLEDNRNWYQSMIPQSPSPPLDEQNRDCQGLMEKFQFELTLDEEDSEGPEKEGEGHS

Turning to `COC(=O)c1ccc(S(=O)(=O)Nc2cc(OC)cc3cccnc23)o1` [Compound 3-45, 5-(6-Methoxy-quinolin-8-ylsulfamoyl)-furan-2-carboxylic acid methyl ester], the IC50 (in assay [1] (setting [2]); at PDE4D (setting [3])) was over 10 µM throughout.
As for `CCc1ccccc1Nc1sc(C(=O)c2cnn(-c3ccccc3)c2C)c(N)c1C#N` [Compound 1-58, 4-Amino-2-(2-ethyl-phenylamino)-5-(5-methyl-1-phenyl-1H-pyrazole-4-carbonyl)-thiophene-3-carbonitrile], the IC50 (in assay [1] (setting [4]); at PDE4D (setting [5])) was under 10 µM each time.
Regarding `Cc1ccc2cccnc2c1NS(=O)(=O)c1cc(Cl)c(Cl)s1` [Compound 3-8, 4,5-Dichloro-thiophene-2-sulfonic acid (7-methyl-quinolin-8-yl)-amide], the IC50 (in assay [1] (setting [2]); at PDE4D (setting [3])) was over 10 µM each time.
Regarding `COC(=O)c1ccccc1Nc1sc(C(=O)c2cnn(-c3ccccc3)c2C)c(N)c1C#N` [Compound 1-126, 2-[4-Amino-3-cyano-5-(5-methyl-1-phenyl-1H-pyrazole-4-carbonyl)-thiophen-2-ylamino]-benzoic acid methyl ester], the IC50 (in assay [1] (setting [4]); on PDE4D (setting [5])) was under 10 µM throughout.
With `COC(=O)C(CCSC)Nc1sc(C(=O)c2ccccc2Cl)c(N)c1C#N` (stereo not shown) [Compound 1-112, 2-[4-Amino-5-(2-chloro-benzoyl)-3-cyano-thiophene-2-ylamino]-4-methylsulfanyl-butyric acid methyl ester], the IC50 (in assay [1] (setting [4]); at PDE4D (setting [5])) was under 10 µM in each case.
For the compound `Nc1nc(Nc2ccc(Oc3ccccc3)cc2)sc1C(=O)C1CC1` [Compound 2-97, [4-Amino-2-(4-phenoxy-phenylamino)-thiazol-5-yl]-cyclopropyl-methanone], the IC50 (in assay [1] (setting [6]); on PDE4D (setting [7])) was under 10 µM each time.
On to `Nc1nc(Nc2cc(Cl)ccc2Cl)sc1C(=O)c1ccccc1` [Compound 2-32, [4-Amino-2-(2,5-dichloro-phenylamino)-thiazol-5-yl]-phenyl-methanone], for which the IC50 (in assay [1] (setting [6]); at PDE4D (setting [7])) was under 10 µM each time.
Take `N#Cc1c(Nc2ccc(Cl)c(C(F)(F)F)c2)sc(C(=O)c2ccccc2)c1N` [Compound 1-168, 4-Amino-5-benzoyl-2-(4-chloro-3-trifluoromethyl-phenylamino)-thiophene-3-carbonitrile]: the IC50 (in assay [1] (setting [4]); at PDE4D (setting [5])) was under 10 µM in each case.
Take `COc1cc(NS(=O)(=O)c2cccs2)c2ncccc2c1` [Compound 3-13, Thiophene-2-sulfonic acid (6-methoxy-quinolin-8-yl)-amide]: the IC50 (in assay [1] (setting [2]); at PDE4D (setting [3])) was over 10 µM in each case.
Take `COc1ccc(C(=O)c2sc(NC3CC3)c(C#N)c2N)cc1` [Compound 1-178, 4-Amino-2-cyclopropylamino-5-(4-methoxy-benzoyl)-thiophene-3-carbonitrile]: the IC50 (in assay [1] (setting [4]); on PDE4D (setting [5])) was under 10 µM throughout.
With `Nc1nc(Nc2ccccc2)sc1C(=O)C1CC1` [Compound 2-95, (4-Amino-2-phenylamino-thiazol-5-yl)-cyclopropyl-methanone], the IC50 was under 10 µM in assay [1] (setting [6]) and over 10 µM on PDE4D (setting [7]).
Consider `Nc1nc(Nc2ccccc2)sc1C(=O)C1CCCCC1` [Compound 2-90, (4-Amino-2-phenylamino-thiazol-5-yl)-cyclohexyl-methanone], for which the IC50 (in assay [1] (setting [6]); on PDE4D (setting [7])) was under 10 µM throughout.
`COc1cc(NS(=O)(=O)Cc2ccccc2)c2ncccc2c1` [Compound 3-54, N-(6-Methoxy-quinolin-8-yl)-C-phenyl-methanesulfonamide]: the IC50 (in assay [1] (setting [2]); at PDE4D (setting [3])) was over 10 µM each time.
In the case of `COc1cc(NS(=O)(=O)c2cc(F)ccc2C)c2ncccc2c1` [Compound 3-49, 5-Fluoro-N-(6-methoxy-quinolin-8-yl)-2-methyl-benzenesulfonamide], the IC50 (in assay [1] (setting [2]); on PDE4D (setting [3])) was over 10 µM each time.
In the case of `N#Cc1c(NCCN2CCCCC2)sc(C(=O)c2ccccn2)c1N` [Compound 1-63, 4-Amino-2-(2-piperidin-1-yl-ethylamino)-5-(pyridine-2-carbonyl)-thiophene-3-carbonitrile], the IC50 (in assay [1] (setting [4]); on PDE4D (setting [5])) was over 10 µM each time.
As to `CC(C)Nc1sc(C(=O)c2ccc(Oc3ccccc3)cc2)c(N)c1C#N` [Compound 1-230, 4-Amino-2-isopropylamino-5-(4-phenoxy-benzoyl)-thiophene-3-carbonitrile], the IC50 (in assay [1] (setting [4]); on PDE4D (setting [5])) was under 10 µM throughout.
`Cc1ccc2cccnc2c1NS(=O)(=O)c1ccc(Br)s1` [Compound 3-6, 5-Bromo-thiophene-2-sulfonic acid (7-methyl-quinolin-8-yl)-amide]: the IC50 (in assay [1] (setting [2]); on PDE4D (setting [3])) was over 10 µM throughout.
As for `N#Cc1c(NC2CCOC2=O)sc(C(=O)c2ccccc2Cl)c1N` (stereo not shown) [Compound 1-116, 4-Amino-5-(2-chloro-benzoyl)-2-(2-oxo-tetrahydro-furan-3-ylamino)-thiophene-3-carbonitrile], the IC50 (in assay [1] (setting [4]); at PDE4D (setting [5])) was over 10 µM each time.
For the compound `COc1ccc(Nc2sc(C(=O)c3cccc(Cl)c3)c(N)c2C#N)cc1` [Compound 1-117, 4-Amino-5-(3-chloro-benzoyl)-2-(4-methoxy-phenylamino)-thiophene-3-carbonitrile], the IC50 (in assay [1] (setting [4]); on PDE4D (setting [5])) was under 10 µM throughout.
`COc1ccc(OC)c(C(=O)c2sc(Nc3ccc4c(c3)CCC4)c(C#N)c2N)c1` [Compound 1-94, 4-Amino-5-(2,5-dimethoxy-benzoyl)-2-(indan-5-ylamino)-thiophene-3-carbonitrile]: the IC50 (in assay [1] (setting [4]); at PDE4D (setting [5])) was under 10 µM throughout.
For the compound `Cc1ccc(C(=O)c2sc(Nc3ccc(Oc4ccccc4)cc3)c(C#N)c2N)c(C)c1` [Compound 1-158, 4-Amino-5-(2,4-dimethyl-benzoyl)-2-(4-phenoxy-phenylamino)-thiophene-3-carbonitrile], the IC50 in assay [1] (setting [4]) is under 10 µM; at PDE4D (setting [5]) it was over 10 µM.
In the case of `O=S(=O)(Nc1cccc2cccnc12)c1ccc(Cl)s1` [Compound 3-7, 5-Chloro-thiophene-2-sulfonic acid quinolin-8-ylamide], the IC50 (in assay [1] (setting [2]); at PDE4D (setting [3])) was over 10 µM each time.
In the case of `COc1ccc(C(=O)c2sc(NC3CC3)nc2N)cc1` [Compound 2-79, (4-Amino-2-cyclopropylamino-thiazol-5-yl)-(4-methoxy-phenyl)-methanone], the IC50 (in assay [1] (setting [6]); on PDE4D (setting [7])) was under 10 µM in each case.
Take `COc1cc(NS(=O)(=O)c2ccc(F)cc2)c2ncccc2c1` [Compound 3-55, 4-Fluoro-N-(6-methoxy-quinolin-8-yl)-benzenesulfonamide]: the IC50 (in assay [1] (setting [2]); on PDE4D (setting [3])) was over 10 µM each time.
On to `N#Cc1c(NC2CCCC2)sc(C(=O)c2ccc(Oc3ccccc3)cc2)c1N` [Compound 1-231, 4-Amino-2-cyclopentylamino-5-(4-phenoxy-benzoyl)-thiophene-3-carbonitrile], for which the IC50 (in assay [1] (setting [4]); at PDE4D (setting [5])) was under 10 µM each time.
On to `N#Cc1cccc(Nc2nc(N)c(C(=O)c3ccc(Oc4ccccc4)cc3)s2)c1` [Compound 2-46, 3-[4-Amino-5-(4-phenoxy-benzoyl)-thiazol-2-ylamino]-benzonitrile], for which the IC50 (in assay [1] (setting [6]); on PDE4D (setting [7])) was under 10 µM throughout.
